Laboratory results: the supplement of paper PMC10307832

Key:
Assay in all cases: relative viability (nuclei count vs DMSO), 5 days (fraction); higher = more cells survive
Linsitinib + Tozasertib = compound: C[C@]1(O)C[C@@H](c2nc(-c3ccc4ccc(-c5ccccc5)nc4c3)c3c(N)nccn32)C1 [Linsitinib] + Cc1cc(Nc2cc(N3CCN(C)CC3)nc(Sc3ccc(NC(=O)C4CC4)cc3)n2)n[nH]1 [Tozasertib] (partner 0.1 µM)
Method in brief: (§1)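 Lung cancer cell lines in 1536-well plates were dosed by pin tool the day after seeding, either with one drug alone or with a fixed anchor-drug dose plus five library-drug doses (not always all listed) in √10 steps. After 5 days, cells were fixed and their nuclei stained in one step (final 0.05% Triton X-100, 1% formaldehyde, 1 ug/ml Hoechst), then counted on 4× images. Relative viability is the nuclei count in treated wells divided by that in vehicle wells. Values are medians of duplicate plates.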

Linsitinib + Palbociclib = compound: C[C@]1(O)C[C@@H](c2nc(-c3ccc4ccc(-c5ccccc5)nc4c3)c3c(N)nccn32)C1 [Linsitinib] + CC(=O)c1c(C)c2cnc(Nc3ccc(N4CCNCC4)cn3)nc2n(C2CCCC2)c1=O [Palbociclib] (partner 0.5 µM)
Method in brief: as §1

Ispinesib + Navitoclax = compound: Cc1ccc(C(=O)N(CCCN)[C@@H](c2nc3cc(Cl)ccc3c(=O)n2Cc2ccccc2)C(C)C)cc1 [Ispinesib] + CC1(C)CCC(c2ccc(Cl)cc2)=C(CN2CCN(c3ccc(C(=O)NS(=O)(=O)c4ccc(N[C@H](CCN5CCOCC5)CSc5ccccc5)c(S(=O)(=O)C(F)(F)F)c4)cc3)CC2)C1 [Navitoclax] (partner 0.5 µM)
Method in brief: as §1

Linsitinib + Alpelisib = compound: C[C@]1(O)C[C@@H](c2nc(-c3ccc4ccc(-c5ccccc5)nc4c3)c3c(N)nccn32)C1 [Linsitinib] + Cc1nc(NC(=O)N2CCC[C@H]2C(N)=O)sc1-c1ccnc(C(C)(C)C(F)(F)F)c1 [Alpelisib] (partner 2 µM)
Method in brief: as §1

## UMC-11
Linsitinib + Tozasertib; first compound 0.01 µM
  relative viability: 0.204
Linsitinib + Tozasertib; first compound 0.1 µM
  relative viability: 0.196
Linsitinib + Tozasertib; first compound 1 µM
  relative viability: 0.19
Linsitinib + Palbociclib; first compound 0.01 µM
  relative viability: 0.303
Linsitinib + Palbociclib; first compound 0.03162 µM
  relative viability: 0.301
Linsitinib + Palbociclib; first compound 0.1 µM
  relative viability: 0.33
Linsitinib + Palbociclib; first compound 0.3162 µM
  relative viability: 0.322
Linsitinib + Palbociclib; first compound 1 µM
  relative viability: 0.332
Ispinesib + Navitoclax; first compound 0.001 µM
  relative viability: 0.314
Ispinesib + Navitoclax; first compound 0.003162 µM
  relative viability: 0.371
Ispinesib + Navitoclax; first compound 0.01 µM
  relative viability: 0.267
Ispinesib + Navitoclax; first compound 0.03162 µM
  relative viability: 0.176
Ispinesib + Navitoclax; first compound 0.1 µM
  relative viability: 0.216
Linsitinib + Alpelisib; first compound 0.01 µM
  relative viability: 0.958
Linsitinib + Alpelisib; first compound 0.03162 µM
  relative viability: 0.951
Linsitinib + Alpelisib; first compound 0.1 µM
  relative viability: 0.961
Linsitinib + Alpelisib; first compound 1 µM
  relative viability: 0.969
